Results reported in patent US20240025919A1, “AZA-TETRACYCLIC OXAZEPINE COMPOUNDS AND USES THEREOF” (Genentech, Inc., priority 2022, published 2024).

Experiments:
[1] = molecular target: KRAS G12D (Homo sapiens (Human), UniProt P01116, G12D); assay: KRAS G12D LoEnz Biochemical Assay, BODIPY-GDP Exchange TR-FRET (SOS1-mediated nucleotide exchange); conditions: read-out: KRas (G12D) GDP HTRF IC50
Procedure: Example 500: KRAS G12D LoEnz Biochemical Assay, BODIPY-GDP Exchange TR-FRET. Biochemical compound potencies are assessed by evaluating inhibition of SOS1I-mediated nucleotide exchange in KRAS G121D. In this assay, the SOS1-promoted exchange of fluorescently-labeled GDP (BOPIDY-GDP) is monitored by time-resolved fluorescence resonance energy transfer (TR-FRET). Compounds solubilized in DMS0 are dispensed as concentration series into 384-well white assay plates. A preformed complex of biotin-tagged recombinant human KRAS (0.06 nM mutant G1 2D) and 0.06 nM terbium-labeled streptavidin (CisBIO) prepared in 10 uL/well assay buffer (20 mM HEPES, pH 7.5, 50 mM NaCl, 10 mMMMgCl2, 0.0100 Tween-20 and 1 mM dithiothreitol) is added and allowed to incubate for 10-minutes at room temperature. The reaction is initiated with the addition of 5 uL 300 nM recombinant human SOS1 and 300 nM BODIPY-GDP in assay buffer. After a 120-minute incubation, the fluorescence is measured with excitation at 337 nm and emission at 490 and 520 nm. The TR-FRET ratio is determined as the fluorescence at 520 nm divided by the fluorescence at 490 nm multiplied by 10,000. The results are normalized to percent inhibition based on control samples: DMSO (0% inhibition) and control compound at a concentration that inhibits completely (100% inhibition). The normalized TR-FRET results are plotted against compound concentration, and the data are fit to a 4-parameter Hill equation to determine the IC50 values.

[2] = molecular target: KRAS WT (Homo sapiens (Human), UniProt P01116); assay: KRAS WT Biochemical Assay, BODIPY-GDP Exchange TR-FRET (Example 501; 3 nM KRAS WT, 3 nM SOS1, 60-minute incubation); conditions: read-out: KRas(wt) GDP HTRF IC50
Sequence of KRAS WT (P01116-2 other isoform, or with tags, fused parts or gaps): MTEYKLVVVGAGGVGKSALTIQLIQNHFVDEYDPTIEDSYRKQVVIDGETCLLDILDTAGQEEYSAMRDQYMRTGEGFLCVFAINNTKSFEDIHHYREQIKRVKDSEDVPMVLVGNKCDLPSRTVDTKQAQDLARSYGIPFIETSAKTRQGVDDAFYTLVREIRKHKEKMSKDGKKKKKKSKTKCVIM
Procedure: Example 501: KRAS WT Biochemical Assay, BODIPY-GDP Exchange TR-FRET. Biochemical compound potencies are assessed by evaluating inhibition of SOS1-mediated nucleotide exchange in KRAS WT. In this assay, the SOS1-promoted exchange of fluorescently-labeled GDP (BOPIDY-GDP) is monitored by time-resolved fluorescence resonance energy transfer (TR-FRET). Compounds solubilized in DMSO are dispensed as concentration series into 384-well white assay plates, and 5 uL assay buffer (20 mM HEPES, pH 7.5, 50 mM NaCl, 10 mM MgCl2, 0.01% Tween-20 and 1 mM dithiothreitol) is added just prior to the start of the assay. A preformed complex of 3 nM biotin-tagged recombinant human KRAS WT and 0.3 nM terbium-labeled streptavidin (CisBIO) prepared in 5 uL/well assay buffer is added and allowed to incubate for 10-minutes at room temperature. The reaction is initiated with the addition of 5 uL 3 nM recombinant human SOS1 and 300 nM BODIPY-GDP in assay buffer. After a 60-minute incubation, the fluorescence is measured with excitation at 337 nm and emission at 490 and 520 nm. The TR-FRET ratio is determined as the fluorescence at 520 nm divided by the fluorescence at 490 nm multiplied by 10,000. The results are normalized to percent inhibition based on control samples: DMSO (0% inhibition) and control compound at a concentration that inhibits completely (100% inhibition). The normalized TR-FRET results are plotted against compound concentration, and the data are fit to a 4-parameter Hill equation to determine the IC50 values.

Sequence of KRAS G12D (P01116-2 other isoform, or with tags, fused parts or gaps G12D): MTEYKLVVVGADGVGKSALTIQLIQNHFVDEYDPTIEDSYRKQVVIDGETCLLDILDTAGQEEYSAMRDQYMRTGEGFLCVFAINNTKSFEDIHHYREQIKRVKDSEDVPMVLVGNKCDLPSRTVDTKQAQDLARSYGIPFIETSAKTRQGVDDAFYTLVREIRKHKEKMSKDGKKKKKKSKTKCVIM

SMILES	IC50 [1]	IC50 [2]
Oc1cc(-c2nc3c4c(nc(OC[C@@]56CCCN5C[C@H](F)C6)nc4c2F)N2C[C@H]4CC[C@H](N4)[C@H]2CO3)c2c(F)cccc2c1 [Compound 1, 5-Fluoro-4-((5aS,6S,9R)-1-fluoro-12-(((2R,7aS)-2-fluorotetrahydro-1H-pyrrolizin-7a(5H)-yl)methoxy)-5a,6,7,8,9,10-hexahydro-5H-4-oxa-3,10a,11,13,14-pentaaza-6,9-methanonaphtho[1,8-ab]heptalen-2-yl)naphthalen-2-ol]	0.12 nM	8.12 nM
Cn1ncc2ccc(F)c(-c3nc4c5c(nc(OC[C@@]67CCCN6C[C@H](F)C7)nc5c3F)N3C[C@H]5CC[C@H](N5)[C@H]3CO4)c21 [Compound 4, (5aS,6S,9R)-1-fluoro-2-(6-fluoro-1-methyl-1H-indazol-7-yl)-12-(((2R,7aS)-2-fluorotetrahydro-1H-pyrrolizin-7a(5H)-yl)methoxy)-5a,6,7,8,9,10-hexahydro-5H-4-oxa-3,10a,11,13,14-pentaaza-6,9-methanonaphtho[1,8-ab]heptalene]	899 nM	9570 nM
CCc1cccc2cc(O)cc(-c3nc4c5c(nc(OC[C@@]67CCCN6C[C@H](F)C7)nc5c3F)N3C[C@H]5CC[C@H](N5)[C@H]3CO4)c12 [Compound 5, 5-ethyl-4-((5aS,6S,9R)-1-fluoro-12-(((2R,7aS)-2-fluorotetrahydro-1H-pyrrolizin-7a(5H)-yl)methoxy)-5a,6,7,8,9,10-hexahydro-5H-4-oxa-3,10a,11,13,14-pentaaza-6,9-methanonaphtho[1,8-ab]heptalen-2-yl)naphthalen-2-ol]	0.06 nM	2.12 nM
C[C@@H]1Oc2nc(-c3cccc4cccc(Cl)c34)c(F)c3nc(OC[C@@]45CCCN4C[C@H](F)C5)nc(c23)N2C[C@H]3CC[C@H](N3)[C@@H]12 [Compound 8, (5S,5aS,6S,9R)-2-(8-chloronaphthalen-1-yl)-1-fluoro-12-(((2R,7aS)-2-fluorotetrahydro-1H-pyrrolizin-7a(5H)-yl)methoxy)-5-methyl-5a,6,7,8,9,10-hexahydro-5H-4-oxa-3,10a,11,13,14-pentaaza-6,9-methanonaphtho[1,8-ab]heptalene]	1.78 nM	146 nM
C[C@@H]1Oc2nc(-c3cccc(N)c3F)c(F)c3nc(OC[C@@]45CCCN4C[C@H](F)C5)nc(c23)N2C[C@H]3CC[C@H](N3)[C@@H]12 [Compound 12, 2-fluoro-3-((5S,5aS,6S,9R)-1-fluoro-12-(((2R,7aS)-2-fluorotetrahydro-1H-pyrrolizin-7a(5H)-yl)methoxy)-5-methyl-5a,6,7,8,9,10-hexahydro-5H-4-oxa-3,10a,11,13,14-pentaaza-6,9-methanonaphtho[1,8-ab]heptalen-2-yl)aniline]	379 nM	37400 nM
C[C@@H]1Oc2nc(-c3cc(N)c(F)cc3C(F)(F)F)c(F)c3nc(OC[C@@]45CCCN4C[C@H](F)C5)nc(c23)N2C[C@H]3CC[C@H](N3)[C@@H]12 [Compound 14, 2-fluoro-5-((5S,5aS,6S,9R)-1-fluoro-12-(((2R,7aS)-2-fluorotetrahydro-1H-pyrrolizin-7a(5H)-yl)methoxy)-5-methyl-5a,6,7,8,9,10-hexahydro-5H-4-oxa-3,10a,11,13,14-pentaaza-6,9-methanonaphtho[1,8-ab]heptalen-2-yl)-4-(trifluoromethyl)aniline]	0.26 nM	6.58 nM
C[C@@H]1Oc2nc(-c3cc(N)c(F)c(F)c3C(F)(F)F)c(F)c3nc(OC[C@@]45CCCN4C[C@H](F)C5)nc(c23)N2C[C@H]3CC[C@H](N3)[C@@H]12 [Compound 15, 2,3-difluoro-5-((5S,5aS,6S,9R)-1-fluoro-12-(((2R,7aS)-2-fluorotetrahydro-1H-pyrrolizin-7a(5H)-yl)methoxy)-5-methyl-5a,6,7,8,9,10-hexahydro-5H-4-oxa-3,10a,11,13,14-pentaaza-6,9-methanonaphtho[1,8-ab]heptalen-2-yl)-4-(trifluoromethyl)aniline]	0.07 nM	0.448 nM
Cc1cc(-c2nc3c4c(nc(OC[C@@]56CCCN5C[C@H](F)C6)nc4c2F)N2C[C@H]4CC[C@H](N4)[C@H]2[C@H](C)O3)c(F)c(N)c1F [Compound 18, 2,6-difluoro-3-((5S,5aS,6S,9R)-1-fluoro-12-(((2R,7aS)-2-fluorotetrahydro-1H-pyrrolizin-7a(5H)-yl)methoxy)-5-methyl-5a,6,7,8,9,10-hexahydro-5H-4-oxa-3,10a,11,13,14-pentaaza-6,9-methanonaphtho[1,8-ab]heptalen-2-yl)-5-methylaniline]	175 nM	7850 nM
Cc1c(F)c(N)cc(-c2nc3c4c(nc(OC[C@]56CCN5CC(F)(F)C6)nc4c2F)N2C[C@H]4CC[C@H](N4)[C@H]2[C@H](C)O3)c1C(F)(F)F [Compound 24, 5-((5S,5aS,6S,9R)-12-(((R)-3,3-difluoro-1-azabicyclo[3.2.0]heptan-5-yl)methoxy)-1-fluoro-5-methyl-5a,6,7,8,9,10-hexahydro-5H-4-oxa-3,10a,11,13,14-pentaaza-6,9-methanonaphtho[1,8-ab]heptalen-2-yl)-2-fluoro-3-methyl-4-(trifuoromethyl)aniline]	0.29 nM	3.28 nM
C[C@@H]1Oc2nc(-c3cc(O)cc4ccccc34)c(F)c3nc(OC[C@]45CCN4CC(F)(F)C5)nc(c23)N2C[C@H]3CC[C@H](N3)[C@@H]12 [Compound 25, 4-((5S,5aS,6S,9R)-12-(((R)-3,3-difluoro-1-azabicyclo[3.2.0]heptan-5-yl)methoxy)-1-fluoro-5-methyl-5a,6,7,8,9,10-hexahydro-5H-4-oxa-3,10a,11,13,14-pentaaza-6,9-methanonaphtho[1,8-ab]heptalen-2-yl)naphthalen-2-ol]	2.04 nM	126 nM
Cc1c(F)c(N)cc(-c2nc3c4c(nc(OC[C@@H]5C[C@@H](F)CN5C)nc4c2F)N2C[C@H]4CC[C@H](N4)[C@H]2[C@H](C)O3)c1C(F)(F)F [Compound 26, 2-Fluoro-5-((5S,5aS,6S,9R)-1-fluoro-12-(((2S,4R)-4-fluoro-1-methylpyrrolidin-2-yl)methoxy)-5-methyl-5a,6,7,8,9,10-hexahydro-5H-4-oxa-3,10a,11,13,14-pentaaza-6,9-methanonaphtho[1,8-ab]heptalen-2-yl)-3-methyl-4-(trifluoromethyl)aniline]	0.26 nM	6.01 nM
C[C@@H]1Oc2nc(-c3cccc4cccc(Cl)c34)c(F)c3nc(OC[C@@]45CCCN4CC4(CC4(F)F)C5)nc(c23)N2C[C@H]3CC[C@H](N3)[C@@H]12 (stereo partly drawn) [Compound 27, (5S,5aS,6S,9R)-2-(8-chloronaphthalen-1-yl)-12-(((7a′S)-2,2-difluorodihydro-1′H,3′H-spiro[cyclopropane-1,2′-pyrrolizin]-7a′(5′H)-yl)methoxy)-1-fluoro-5-methyl-5a,6,7,8,9,10-hexahydro-5H-4-oxa-3,10a,11,13,14-pentaaza-6,9-methanonaphtho[1,8-ab]heptalene]	0.72 nM	65.2 nM
Cc1c(F)c(N)cc(-c2nc3c4c(nc(OCC56CCN5C[C@H](F)C6)nc4c2F)N2C[C@H]4CC[C@H](N4)[C@H]2[C@H](C)O3)c1C(F)(F)F (stereo partly drawn) [Compound 29, 2-fluoro-5-((5S,5aS,6S,9R)-1-fluoro-12-(((3R)-3-fluoro-1-azabicyclo[3.2.0]heptan-5-yl)methoxy)-5-methyl-5a,6,7,8,9,10-hexahydro-5H-4-oxa-3,10a,11,13,14-pentaaza-6,9-methanonaphtho[1,8-ab]heptalen-2-yl)-3-methyl-4-(trifluoromethyl)aniline]	0.086 nM	2.93 nM
